# The source made the active and inactive calls. No cut-off for these calls is given here.
# What was measured:
# [1] = tested on: Mus musculus; test: Antitumor immunity in mouse MC38 cells implanted in C57BL/6J mouse assessed as increase in IFN-beta level in injected tumor at 5 to 20 ug,IT administrated in right flank on day 0 measured after 4 hrs by ELISA; type: functional, organism-based; settings: MC-38, dose 5-20 µg
# [2] = tested on: B16-F10; test: Antitumor activity against mouse B16-F10 cells implanted in C57BL/6J mouse assessed as reduction in tumor growth at 4 ug,IT administered for day 0,3,7 followed by anti-mouse PD-1 antibody Mdx400 incubated for 28 days measured twice a week; type: functional; settings: dose 4.0 µg, time 28.0 day
# [3] = tested on: MC-38; test: Antitumor activity against mouse MC38 cells implanted in C57BL/6J mouse assessed as reduction in tumor growth on right flank at 20 ug,IT administrated in right flank on day 0, 3 and 7 measured after 15 days; type: functional, cell-based; settings: dose 20.0 µg, time 15.0 day
# [4] = tested on: Mus musculus; test: Antitumor immunity in mouse MC38 cells implanted in C57BL/6J mouse assessed as increase in IL-6 level in injected tumor at 5 to 20 ug,IT administrated in right flank on day 0 measured after 4 hrs by mesoscale assay; type: functional, organism-based; settings: MC-38, dose 5-20 µg
# [5] = tested on: Mus musculus; test: Antitumor immunity in mouse MC38 cells implanted in C57BL/6J mouse assessed as increase in TNF-alpha level in injected tumor at 5 to 20 ug,IT administrated in right flank on day 0 measured after 4 hrs by mesoscale assay; type: functional, organism-based; settings: MC-38, dose 5-20 µg
# [6] = tested on: MC-38; test: Antitumor activity against mouse MC38 cells implanted in C57BL/6J mouse assessed as reduction in tumor growth at 4 ug,IT administered for day 0,3,7 followed by anti-mouse PD-1 antibody Mdx400 incubated for 28 days measured twice a week; type: functional, cell-based; settings: dose 4.0 µg, time 28.0 day
# [7] = tested on: MC-38; test: Antitumor activity against mouse MC38 cells implanted in C57BL/6J mouse assessed as reduction in tumor growth on right flank at 5 ug,IT administrated in right flank on day 0, 3 and 7 measured after 15 days; type: functional, cell-based; settings: dose 5.0 µg, time 15.0 day
# [8] = Drug uptake in plasma of C57BL/6J mouse implanted with mouse MC38 cells assessed as drug concentration at 20 ug,IT administrated on left flank on day 0 measured upto 1 hr by LC-MS analysis; type: ADME, cell-free, MC-38; settings: in vivo, other, dose 20 µg
# [9] = Drug uptake in tumor of C57BL/6J mouse implanted with mouse MC38 cells assessed as drug concentration at 20 ug,IT administrated on right flank on day 0 measured upto 1 hr by LC-MS analysis; type: ADME, tissue-based, Neoplasm, MC-38; settings: in vivo, other, dose 20 µg
# [10] = Drug uptake in plasma of C57BL/6J mouse implanted with mouse MC38 cells assessed as drug concentration at 20 ug,IT administrated on right flank on day 0 measured upto 1 hr by LC-MS analysis; type: ADME, cell-free, MC-38; settings: in vivo, other, dose 20 µg
# [11] = Drug uptake in tumor of C57BL/6J mouse implanted with mouse MC38 cells assessed as drug concentration at 20 ug,IT administrated on left flank on day 0 measured upto 1 hr by LC-MS analysis; type: ADME, tissue-based, Neoplasm, MC-38; settings: in vivo, other, dose 20 µg
# [12] = biological target: Stimulator of interferon genes protein (Mus musculus, UniProt Q3TBT3); settings: bmdc
# [13] = tested on: Mus musculus; test: Antitumor immunity in mouse MC38 cells implanted in C57BL/6J mouse assessed as increase in TNF-alpha level in injected tumor at 100 to 500 ug,IT administrated in right flank on day 0 measured after 4 hrs by mesoscale assay; type: functional, organism-based; settings: MC-38, dose 100-500 µg
# [14] = tested on: Mus musculus; test: Antitumor immunity in mouse MC38 cells implanted in C57BL/6J mouse assessed as increase in IFN-beta level in injected tumor at 100 to 500 ug,IT administrated in right flank on day 0 measured after 4 hrs by ELISA; type: functional, organism-based; settings: MC-38, dose 100-500 µg
# [15] = tested on: Mus musculus; test: Antitumor immunity in mouse MC38 cells implanted in C57BL/6J mouse assessed as increase in IL-6 level in injected tumor at 100 to 500 ug,IT administrated in right flank on day 0 measured after 4 hrs by mesoscale assay; type: functional, organism-based; settings: MC-38, dose 100-500 µg
# Stimulator of interferon genes protein, sequence (Q3TBT3 whole entry, looked up, change not shown): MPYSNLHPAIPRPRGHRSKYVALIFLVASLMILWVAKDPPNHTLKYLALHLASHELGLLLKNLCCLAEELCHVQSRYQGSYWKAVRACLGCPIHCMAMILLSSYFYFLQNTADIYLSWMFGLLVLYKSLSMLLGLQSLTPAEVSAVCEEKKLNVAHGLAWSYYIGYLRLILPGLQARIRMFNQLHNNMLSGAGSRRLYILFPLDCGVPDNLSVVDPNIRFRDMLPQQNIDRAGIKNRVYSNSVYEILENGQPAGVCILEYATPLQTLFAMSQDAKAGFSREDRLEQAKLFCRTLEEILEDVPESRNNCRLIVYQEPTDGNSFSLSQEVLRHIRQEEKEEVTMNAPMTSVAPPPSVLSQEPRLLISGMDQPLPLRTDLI
structure (smiles),measurement,setting,value
Nc1nc(=O)c2ncn([C@@H]3O[C@@H]4CO[P@@](=O)(S)O[C@H]5[C@H](F)[C@H](n6cnc7c(N)ncnc76)O[C@@H]5CO[P@@](=O)(S)O[C@@H]3[C@@H]4F)c2[nH]1,Activity,[1],Active
same,Activity,[2],Active
same,Activity,[3],Active
same,Activity,[4],Active
same,Activity,[5],Active
same,Activity,[6],Active
same,Activity,[7],Active
N.N.Nc1nc2c(ncn2[C@@H]2O[C@@H]3CO[P@@](=O)(S)O[C@H]4[C@H](F)[C@H](n5cnc6c(N)ncnc65)O[C@@H]4CO[P@@](=O)(S)O[C@@H]2[C@@H]3F)c(=O)[nH]1,Drug uptake,[8],Active
same,Drug uptake,[9],Active
same,Drug uptake,[10],Active
same,Drug uptake,[11],Active
Nc1nc2c(ncn2[C@@H]2O[C@@H]3CO[P@@](=O)(S)O[C@H]4[C@H]5OC[C@]4(CO[P@@](=O)(S)O[C@@H]2[C@@H]3O)O[C@H]5n2cnc3c(N)ncnc32)c(=O)[nH]1,EC50,[12],5.38 µM
Nc1nc2c(ncn2[C@@H]2O[C@@H]3CO[P@@](=O)(S)O[C@H]4[C@@H](O)[C@H](n5cnc6c(N)ncnc65)O[C@@H]4CO[P@@](=O)(S)O[C@@H]2C3)c(=O)[nH]1,EC50,[12],6.23 µM
Nc1nc2c(ncn2[C@@H]2O[C@@H]3CO[P@@](=O)(S)O[C@H]4C[C@H](n5cnc6c(N)ncnc65)O[C@@H]4CO[P@@](=O)(S)O[C@@H]2[C@@H]3F)c(=O)[nH]1,EC50,[12],3.21 µM
Nc1nc2c(ncn2[C@@H]2O[C@@H]3CO[P@@](=O)(S)O[C@H]4[C@@H](F)[C@H](n5cnc6c(N)ncnc65)O[C@@H]4CO[P@@](=O)(S)O[C@@H]2[C@@H]3O)c(=O)[nH]1,EC50,[12],1.55 µM
Nc1nc2c(ncn2[C@@H]2O[C@@H]3COP(=O)(O)O[C@H]4[C@H]5OC[C@]4(COP(=O)(O)O[C@@H]2C3)O[C@H]5n2cnc3c(N)ncnc32)c(=O)[nH]1,EC50,[12],> 100 µM
Nc1nc2c(ncn2[C@@H]2O[C@@H]3COP(=O)(O)O[C@H]4[C@@H](O)[C@H](n5cnc6c(N)ncnc65)O[C@@H]4COP(=O)(O)O[C@@H]2[C@@H]3O)c(=O)[nH]1,Activity,[13],Active
same,Activity,[14],Active
same,Activity,[15],Active

# Reference: ChEMBL document CHEMBL5154814, “Discovery of MK-1454: A Potent Cyclic Dinucleotide Stimulator of Interferon Genes Agonist for the Treatment of Cancer” (J Med Chem, 2022)
